The subject of the assay is HIV. In words: MT4 assay: antiviral HIV activity in MT-4 cells. It is filed as cell-based. Conditions: read-out 96 hours later with cell titer glo, 10 point dose response. As for the experimental part: Antiviral HIV activity and cytotoxicity values for compounds of the invention from Table 1 were measured in parallel in the HTLV-1 transformed cell line MT-4 based on the method previously described (Hazen et al., 2007, In vitro antiviral activity of the novel, tyrosyl-based human immunodeficiency virus (HIV) type 1 protease inhibitor brecanavir (GW640385) in combination with other antiretrovirals and against a panel of protease inhibitor-resistant HIV (Hazen et al., “In vitro antiviral activity of the novel, tyrosyl-based human immunodeficiency virus (HIV) type 1 protease inhibitor brecanavir (GW640385) in combination with other antiretrovirals and against a panel of protease inhibitor-resistant HIV”, Antimicrob. Agents Chemother. 2007, 51: 3147-3154; and Pauwels et al., “Sensitive and rapid assay on MT-4 cells for the detection of antiviral compounds against the AIDS virus”, J. of Virological Methods 1987, 16: 171-185).
Luciferase activity was measured 96 hours later by adding a cell titer glo (Promega, Madison, Wis.). Percent inhibition of cell protection data was plotted relative to no compound control. Under the same condition, cytotoxicity of the compounds was determined using cell titer Glo™ (Promega, Madison, Wis.). IC50s were determined from a 10 point dose response curve using 3-4-fold serial dilution for each compound, which spans a concentration range>1000 fold.
These values are plotted against the molar compound concentrations using the standard four parameter logistic equation: y=((Vmax*x^n)/(K^n+x^n))+Y2
Y2=minimum y n=slope factor
Vmax=maximum y x=compound concentration [M]
On the technique in general: Cellular ATP, detected with luciferase, serves as a proxy for viable cell number.

[1] abbreviates: Human immunodeficiency virus 1, MT4, 96 h, read-out: HIV MT4 Assay IC50 (μM), HTLV-1 transformed cell line MT-4.

Structures can show the parent of a compound that is named as a salt. Where two headings read alike, the source gives them in different places.

In the case of `Cc1nc2c(ccn2Cc2ccc(F)c(F)c2)c(-c2ccc3c(c2C)CCCO3)c1[C@H](OC(C)(C)C)C(=O)O` (atropisomer, axis not shown; (M)) [Example 87, (2S)(M)-2-(tert-Butoxy)-2-(1-(3,4-difluorobenzyl)-6-methyl-4-(5-methylchroman-6-yl)-1H-pyrrolo[2,3-b]pyridin-5-yl)acetic acid], the IC50 – broadly, the concentration needed to halve the response being measured – under setting [1] was determined as 0.005 µM. For `Cc1nc2c(ccn2Cc2ccc(F)c(F)c2)c(-c2cc(Cl)c3c(c2C)CCCO3)c1[C@H](OC(C)(C)C)C(=O)O` (atropisomer, axis not shown; (M)) [Example 95, (2S)(M)-2-(tert-butoxy)-2-(4-(8-chloro-5-methylchroman-6-yl)-1-(3,4-difluorobenzyl)-6-methyl-1H-pyrrolo[2,3-b]pyridin-5-yl)acetic acid], the IC50 under setting [1] turned out to be 0.04 µM. Still for that read-out and setting: under `Cc1nc2c(ccn2Cc2ccc(F)c(F)c2)c(-c2cc(F)c3c(c2C)CCCO3)c1[C@H](OC(C)(C)C)C(=O)O` (atropisomer, axis not shown; (M)) [Example 96, (2S)(M)-2-(tert-butoxy)-2-(1-(3,4-difluorobenzyl)-4-(8-fluoro-5-methylchroman-6-yl)-6-methyl-1H-pyrrolo[2,3-b]pyridin-5-yl)acetic acid] stands 0.006 µM. Regarding `Cc1nc2c(ccn2Cc2ccc(F)c(F)c2)c(-c2ccc3c(c2C)NCCO3)c1[C@H](OC(C)(C)C)C(=O)O` (atropisomer, axis not shown; (M)) [Example 97, (2S)(M)-2-(tert-butoxy)-2-(1-(3,4-difluorobenzyl)-6-methyl-4-(5-methyl-3,4-dihydro-2H-benzo[b][1,4]oxazin-6-yl)-1H-pyrrolo[2,3-b]pyridin-5-yl)acetic acid, trifluoroacetic acid salt], under setting [1], the IC50 worked out at 0.012 µM. Still for that read-out and setting: under `Cc1nc2c(ccn2Cc2cccc(F)c2F)c(-c2cc(Cl)c3c(c2C)CCCO3)c1[C@H](OC(C)(C)C)C(=O)O` (atropisomer, axis not shown; (M)) [Example 98, (2S(M))-2-(tert-butoxy)-2-(4-(8-chloro-5-methylchroman-6-yl)-1-(2,3-difluorobenzyl)-6-methyl-1H-pyrrolo[2,3-b]pyridin-5-yl)acetic acid] stands 0.181 µM. In the case of `Cc1nc2c(ccn2Cc2cccc(F)c2F)c(-c2ccc3c(c2C)CCCO3)c1[C@H](OC(C)(C)C)C(=O)O` (atropisomer, axis not shown; (M)) [Example 99, (2S)(M)-2-(tert-butoxy)-2-(1-(2,3-difluorobenzyl)-6-methyl-4-(5-methylchroman-6-yl)-1H-pyrrolo[2,3-b]pyridin-5-yl)acetic acid], the IC50 under setting [1] came out at 0.008 µM. Same read-out and setting: under `Cc1ccc(-c2c([C@H](OC(C)(C)C)C(=O)O)c(C)nc3c2ccn3Cc2ccc(F)c(F)c2)c(C)c1` (atropisomer, axis not shown; (M)) [Example 101, (2S)(M)-2-(tert-butoxy)-2-(1-(3,4-difluorobenzyl)-4-(2,4-dimethylphenyl)-6-methyl-1H-pyrrolo[2,3-b]pyridin-5-yl)acetic acid] stands 0.09 µM. Same read-out and setting: under `Cc1nc2c(ccn2Cc2cccc(F)c2F)c(-c2ccc3c(c2C)NCCO3)c1[C@H](OC(C)(C)C)C(=O)O` (atropisomer, axis not shown; (M)) [Example 104, (S)-2-(tert-Butoxy)-2-((M)-1-(2,3-difluorobenzyl)-6-methyl-4-(5-methyl-3,4-dihydro-2H-benzo[b][1,4]oxazin-6-yl)-1H-pyrrolo[2,3-b]pyridin-5-yl)acetic acid] stands 0.013 µM; under `Cc1nc2c(c(-c3ccc4c(c3C)CCCO4)c1[C@H](OC(C)(C)C)C(=O)O)CCN2` (atropisomer, axis not shown; (M)) [Example 108, (2S)(M)-2-(tert-Butoxy)-2-(6-methyl-4-(5-methylchroman-6-yl)-2,3-dihydro-1H-pyrrolo[2,3-b]pyridin-5-yl)acetic acid], 0.44 µM; under `Cc1nc2c(ccn2Cc2ccc(F)c(F)c2)c(-c2cc3c(cc2F)OCCC3)c1[C@H](OC(C)(C)C)C(=O)O` (atropisomer, axis not shown; (M)) [Example 109, (2S)(M)-2-(tert-butoxy)-2-(1-(3,4-difluorobenzyl)-4-(7-fluorochroman-6-yl)-6-methyl-1H-pyrrolo[2,3-b]pyridin-5-yl)acetic acid], 0.015 µM.

As to `COc1ccc(-c2c([C@H](OC(C)(C)C)C(=O)O)c(C)nc3c2ccn3Cc2ccc(F)c(F)c2)c(C)c1` (atropisomer, axis not shown; (M)) [Example 111, (2S)(M)-2-(tert-Butoxy)-2-(1-(3,4-difluorobenzyl)-4-(4-methoxy-2-methylphenyl)-6-methyl-1H-pyrrolo[2,3-b]pyridin-5-yl)acetic acid], the IC50 under setting [1] worked out at 0.037 µM. `Cc1nc2c(ccn2Cc2ccc(F)c(F)c2)c(-c2ccc3c(c2Cl)NCCO3)c1[C@H](OC(C)(C)C)C(=O)O` (atropisomer, axis not shown; (M)) [Example 113, (2S)(2M)-2-(tert-Butoxy)-2-(4-(5-chloro-3,4-dihydro-2H-benzo[b][1,4]oxazin-6-yl)-1-(3,4-difluorobenzyl)-6-methyl-M-pyrrolo[2,3-b]pyridin-5-yl)acetic acid, Trifluoroacetic acid salt]: the IC50 under setting [1] turned out to be 0.009 µM. On the same count and under the same terms, under `Cc1nc2c(ccn2Cc2ccc(F)c(F)c2)c(-c2ccc3c(c2Cl)N(C)CCO3)c1[C@H](OC(C)(C)C)C(=O)O` (atropisomer, axis not shown; (M)) [Example 116, (2S)(M)-2-(tert-Butoxy)-2-(4-(5-chloro-4-methyl-3,4-dihydro-2H-benzo[b][1,4]oxazin-6-yl)-1-(3,4-difluorobenzyl)-6-methyl-1H-pyrrolo[2,3-b]pyridin-5-yl)acetic acid, Trifluoroacetic acid salt] stands 0.022 µM; under `Cc1nc2c(c(-c3ccc4c(c3C)NCCO4)c1[C@H](OC(C)(C)C)C(=O)O)CCN2Cc1cccc(F)c1F` (atropisomer, axis not shown; (M)) [Example 118, (2S)(M)-2-(tert-butoxy)-2-(1-(2,3-difluorobenzyl)-6-methyl-4-(5-methyl-3,4-dihydro-2H-benzo[b][1,4]oxazin-6-yl)-2,3-dihydro-1H-pyrrolo[2,3-b]pyridin-5-yl)acetic acid, trifluoroacetic acid salt], 0.14 µM. Consider `Cc1nc2c(c(-c3ccc4c(c3C)CCCO4)c1[C@H](OC(C)(C)C)C(=O)O)CCN2Cc1cccc(F)c1F` (atropisomer, axis not shown; (M)) [Example 119], for which the IC50 under setting [1] turned out to be 0.009 µM. As to `Cc1cc(F)ccc1Cn1ccc2c(-c3ccc4c(c3C)NCCO4)c([C@H](OC(C)(C)C)C(=O)O)c(C)nc21` (atropisomer, axis not shown; (M)) [Example 122, (2S)(M)-2-(tert-butoxy)-2-(1-(4-fluoro-2-methylbenzyl)-6-methyl-4-(5-methyl-3,4-dihydro-2H-benzo[b][1,4]oxazin-6-yl)-1H-pyrrolo[2,3-b]pyridin-5-yl)acetic acid], the IC50 under setting [1] was found to be 0.014 µM.

Consider `Cc1nc2c(ccn2Cc2ccc(F)c(F)c2)c(-c2ccc3c4c(ccnc24)CCO3)c1[C@H](OC(C)(C)C)C(=O)O` (atropisomer, axis not shown; (M)) [Example 124, (S)-2-(tert-butoxy)-2-(1-(3,4-difluorobenzyl)-4-((M)-2,3-dihydropyrano[4,3,2-de]quinolin-7-yl)-6-methyl-1H-pyrrolo[2,3-b]pyridin-5-yl)acetic acid], for which, under setting [1], the 50% inhibitory concentration (IC50) is 0.035 µM. As to `Cc1nc2c(c3c(n2C)CCCC3)c(-c2ccc3c(c2C)NCCO3)c1[C@H](OC(C)(C)C)C(=O)O` (atropisomer, axis not shown; (M)) [Example 130, (2S)(M)-2-(tert-butoxy)-2-(2,9-dimethyl-4-(5-methyl-3,4-dihydro-2H-benzo[b][1,4]oxazin-6-yl)-6,7,8,9-tetrahydro-5H-pyrido[2,3-b]indol-3-yl)acetic acid, Trifluoroacetic acid salt], the IC50 (read-out: HIV MT4 Assay IC50, HTLV-1 transformed cell line MT-4, Trifluoroacetic acid salt) stood at 0.01 µM. Regarding `Cc1nc2c(ccn2C)c(-c2cc(F)c3c(c2C)CCCO3)c1[C@H](OC(C)(C)C)C(=O)O` (atropisomer, axis not shown; (M)) [Example 131, (2S)(M)-2-(tert-butoxy)-2-(4-(8-fluoro-5-methylchroman-6-yl)-1,6-dimethyl-1H-pyrrolo[2,3-b]pyridin-5-yl)acetic acid, Trifluoroacetic acid salt], under setting [1], the IC50 was 0.055 µM.

For the molecule `Cc1nc2c(ccn2Cc2cccc(F)c2F)c(-c2cc(F)c3c(c2C)NCCO3)c1[C@H](OC(C)(C)C)C(=O)O` (atropisomer, axis not shown; (M)) [Example 132], under setting [1], the IC50 turned out to be 0.021 µM. Turning to `Cc1nc2c(ccn2Cc2ccc(F)c(F)c2)c(-c2ccc3c(c2C)NCCO3)c1[C@H](OC(C)(C)C)C(=O)O` (atropisomer, axis not shown; (P)) [Example 100, (2S)(P)-2-(tert-butoxy)-2-(1-(3,4-difluorobenzyl)-6-methyl-4-(5-methyl-3,4-dihydro-2H-benzo[b][1,4]oxazin-6-yl)-1H-pyrrolo[2,3-b]pyridin-5-yl)acetic acid, trifluoroacetic acid salt], the IC50 (HTLV-1 transformed cell line MT-4, trifluoroacetic acid salt, read-out: HIV MT4 Assay IC50) stood at 0.1 µM.

The record behind these values is patent US8609653B2, “Azaindole compounds and methods for treating HIV” (priority 2011, dated 2013).
